Source: US20090068290A1, “BIFEPRUNOX DOSES FOR TREATING SCHIZOPHRENIA” (priority 2006, published 2009)

Tests used:
Format in all cases: in vivo, human
[1] = system: adult subjects with schizophrenia; assay: PANSS general psychopathology subscale score, Clinical Study Three; details: for Change from Baseline in PASS General Psychopathology Subscale Score, Mean (SD) / Change from Baseline in PASS General Psychopathology Subscale Score, Median / Trt Effect (bifeprunox - placebo), PASS General Psychopathology Subscale Score / mean change (SD) from Baseline to Endpoint in PANSS general psychopathology subscale score: LOCF; for Change from Baseline in PASS General Psychopathology Subscale Score, Mean (SD) / Change from Baseline in PASS General Psychopathology Subscale Score, Median / Trt Effect (bifeprunox - placebo), PASS General Psychopathology Subscale Score: ITT population; for Trt Effect (bifeprunox - placebo), PASS General Psychopathology Subscale Score: ANCOVA; for PANSS general psychopathology subscale score, treatment effect (bifeprunox—placebo): Endpoint LOCF; for mean change (SD) from Baseline to Endpoint in PANSS general psychopathology subscale score: ITT
From the text: (§1) SECONDARY OBJECTIVES To assess the efficacy of bifeprunox in treating schizophrenia using the Positive Symptom sub-scale score of the PANSS, the Negative Symptom sub-scale score of the PANSS, the General Psychopathology sub-scale of the PANSS, Brief Psychiatric Rating Scale (BPRS) total score derived from the PANSS, BPRS psychosis score derived from the PANSS, the Clinical Global Impression Severity of Illness score (CGI-S), the Clinical Global Impression Improvement score (CGI-I), CGI-I responder rate, PANSS responder rate based on the PANSS total score, Calgary Depression Scale for Schizophrenia (CDSS), and Subject Satisfaction rating.
(§2) There were four treatment arms in this study, approximately 144 subjects per arm. […] After completing the Single-Blind Placebo Lead-in Period of at least three days, bifeprunox-treated subjects were titrated from 0.25 mg up to 20 mg/day or 30 mg/day according to a standardized titration scheme over a seven- or eight-day period, respectively. When the assigned dose was reached, subjects were maintained at that dose for the remainder of the six week treatment period. […] Subjects were hospitalized (if not already inpatients) after eligibility for study entry was verified, starting from the Screening Visit until at least 10 days after Baseline. Subjects could be hospitalized longer than 10 days if considered medically necessary by the Investigator. Rating scale assessments for efficacy and abnormal movement disorders were done weekly except for Week 5. […] Subject satisfaction with study medication was assessed at Week 6.

[2] = system: adult subjects with schizophrenia; assay: BPRS total score, Clinical Study Three; details: for BPRS total score, treatment effect (bifeprunox—placebo): Endpoint LOCF; for mean change (SD) from Baseline to Endpoint in BPRS total score / Change from Baseline in BPRS Total Score, Mean (SD) / Change from Baseline in BPRS Total Score, Median / Change from Baseline in BPRS Total Score, Trt Effect (bifeprunox—placebo): LOCF; for mean change (SD) from Baseline to Endpoint in BPRS total score: ITT; for Change from Baseline in BPRS Total Score, Mean (SD) / Change from Baseline in BPRS Total Score, Median / Change from Baseline in BPRS Total Score, Trt Effect (bifeprunox—placebo): ITT population
From the text: as §1, §2

[3] = system: adult subjects with schizophrenia; assay: PANSS negative symptom subscale score, Clinical Study Two; details: LOCF, ITT
Method: Rating scale assessments were performed weekly, except for week 5, to measure the change from baseline to endpoint of the PANSS total score. Other assessments included: PANSS positive symptom subscale score, PANSS negative symptom subscale score, PANSS general pschopathology subscale score, BPRS total score, BPRS psychosis score, the CGI-S score, the CGI-I score, responder rates based on the PANSS total score, and the Calgary Depression Scale for Schizophrenia (CDSS). […]
Subjects who completed this study had the option to continue in the long-term. […] Risperidone-treated subjects were titrated from 2 mg to 6 mg daily over a three-day period and were subsequently maintained at 6 mg/day for the remainder of the treatment period. […] Blood samples were also obtained at Screening/Baseline, Week 3, and Week 6 for clinical laboratory assessments.

[4] = Bifeprunox 20 mg, Week 6/Endpoint
[5] = Bifeprunox 30 mg, Week 6/Endpoint
[6] = 'the mg bifeprunox group' (dose not given)

SMILES: O=c1[nH]c2cccc(N3CCN(Cc4cccc(-c5ccccc5)c4)CC3)c2o1 [Bifeprunox, 7-[4-([1,1′-biphenyl]-3-ylmethyl)-1-piperazinyl]-2(3H)-benzoxazolone]
- Change from Baseline in PASS General Psychopathology Subscale Score, Mean (SD) ([1]; Bifeprunox 20 mg, Week 1): −2.4 (6.7)
- Change from Baseline in PASS General Psychopathology Subscale Score, Median ([1]; Bifeprunox 20 mg, Week 1): −2
- Change from Baseline in PASS General Psychopathology Subscale Score, Mean (SD) ([1]; Bifeprunox 20 mg, Week 2): −4.6 (8.4)
- Change from Baseline in PASS General Psychopathology Subscale Score, Median ([1]; Bifeprunox 20 mg, Week 2): −5
- Change from Baseline in PASS General Psychopathology Subscale Score, Mean (SD) ([1]; Bifeprunox 20 mg, Week 3): −5.6 (9.3)
- Change from Baseline in PASS General Psychopathology Subscale Score, Median ([1]; Bifeprunox 20 mg, Week 3): −6
- Change from Baseline in PASS General Psychopathology Subscale Score, Mean (SD) ([1]; Bifeprunox 20 mg, Week 4): −5.8 (10.1)
- Change from Baseline in PASS General Psychopathology Subscale Score, Median ([1]; Bifeprunox 20 mg, Week 4): −7
- Change from Baseline in PASS General Psychopathology Subscale Score, Mean (SD) [1, 4]: −6.1 (10.7)
- Change from Baseline in PASS General Psychopathology Subscale Score, Median [1, 4]: −7
- Trt Effect (bifeprunox - placebo), PASS General Psychopathology Subscale Score [1, 4]: −1.5
- Change from Baseline in PASS General Psychopathology Subscale Score, Mean (SD) ([1]; Bifeprunox 30 mg, Week 1): −2.8 (6.3)
- Change from Baseline in PASS General Psychopathology Subscale Score, Median ([1]; Bifeprunox 30 mg, Week 1): −3
- Change from Baseline in PASS General Psychopathology Subscale Score, Mean (SD) ([1]; Bifeprunox 30 mg, Week 2): −3.8 (8.2)
- Change from Baseline in PASS General Psychopathology Subscale Score, Median ([1]; Bifeprunox 30 mg, Week 2): −4
- Change from Baseline in PASS General Psychopathology Subscale Score, Mean (SD) ([1]; Bifeprunox 30 mg, Week 3): −5.0 (9.3)
- Change from Baseline in PASS General Psychopathology Subscale Score, Median ([1]; Bifeprunox 30 mg, Week 3): −4
- Change from Baseline in PASS General Psychopathology Subscale Score, Median ([1]; Bifeprunox 30 mg, Week 4): −5
- Change from Baseline in PASS General Psychopathology Subscale Score, Mean (SD) [1, 5]: −5.8 (10.3)
- Change from Baseline in PASS General Psychopathology Subscale Score, Median [1, 5]: −6
- Trt Effect (bifeprunox - placebo), PASS General Psychopathology Subscale Score [1, 5]: −0.9
- PANSS general psychopathology subscale score, treatment effect (bifeprunox—placebo) ([1]; bifeprunox 20 mg): −1.5
- mean change (SD) from Baseline to Endpoint in PANSS general psychopathology subscale score ([1]; bifeprunox 20 mg): −6.1 (10.7)
- PANSS general psychopathology subscale score, treatment effect (bifeprunox—placebo) ([1]; bifeprunox 30 mg): −0.9
- mean change (SD) from Baseline to Endpoint in PANSS general psychopathology subscale score ([1]; bifeprunox 30 mg): −5.8 (10.3)
- BPRS total score, treatment effect (bifeprunox—placebo) [2, 6]: −2.1
- mean change (SD) from Baseline to Endpoint in BPRS total score [2, 6]: −7.9 (12.0)
- Change from Baseline in BPRS Total Score, Mean (SD) ([2]; Bifeprunox 20 mg, Week 1): −3.2 (7.3)
- Change from Baseline in BPRS Total Score, Median ([2]; Bifeprunox 20 mg, Week 1): −3
- Change from Baseline in BPRS Total Score, Mean (SD) ([2]; Bifeprunox 20 mg, Week 2): −6.0 (9.1)
- Change from Baseline in BPRS Total Score, Median ([2]; Bifeprunox 20 mg, Week 2): −7
- Change from Baseline in BPRS Total Score, Mean (SD) ([2]; Bifeprunox 20 mg, Week 3): −7.5 (10.3)
- Change from Baseline in BPRS Total Score, Median ([2]; Bifeprunox 20 mg, Week 3): −8
- Change from Baseline in BPRS Total Score, Mean (SD) ([2]; Bifeprunox 20 mg, Week 4): −8.1 (11.3)
- Change from Baseline in BPRS Total Score, Median ([2]; Bifeprunox 20 mg, Week 4): −9
- Change from Baseline in BPRS Total Score, Mean (SD) [2, 4]: −8.5 (11.9)
- Change from Baseline in BPRS Total Score, Median [2, 4]: −8
- Change from Baseline in BPRS Total Score, Trt Effect (bifeprunox—placebo) [2, 4]: −2.1
- Change from Baseline in BPRS Total Score, Mean (SD) ([2]; Bifeprunox 30 mg, Week 1): −3.6 (7.3)
- Change from Baseline in BPRS Total Score, Median ([2]; Bifeprunox 30 mg, Week 1): −4
- Change from Baseline in BPRS Total Score, Mean (SD) ([2]; Bifeprunox 30 mg, Week 2): −5.2 (9.3)
- Change from Baseline in BPRS Total Score, Median ([2]; Bifeprunox 30 mg, Week 2): −6
- Change from Baseline in BPRS Total Score, Mean (SD) ([2]; Bifeprunox 30 mg, Week 3): −6.7 (10.7)
- Change from Baseline in BPRS Total Score, Median ([2]; Bifeprunox 30 mg, Week 3): −7
- Change from Baseline in BPRS Total Score, Mean (SD) ([2]; Bifeprunox 30 mg, Week 4): −7.3 (10.9)
- Change from Baseline in BPRS Total Score, Median ([2]; Bifeprunox 30 mg, Week 4): −8
- Change from Baseline in BPRS Total Score, Mean (SD) [2, 5]: −7.9 (12.0)
- Change from Baseline in BPRS Total Score, Median [2, 5]: −9
- Change from Baseline in BPRS Total Score, Trt Effect (bifeprunox—placebo) [2, 5]: −1.1
- mean change (SD) from Baseline to Endpoint in BPRS total score ([2]; bifeprunox 20 mg): −8.5 (11.9)
- BPRS total score, treatment effect (bifeprunox—placebo) ([2]; bifeprunox 30 mg): −1.1
- Change from Baseline in PANSS Negative Symptom Subscale Score, Mean (SD) ([3]; Bifeprunox 30 mg, Week 1): −1.6 (3.7)
- Change from Baseline in PANSS Negative Symptom Subscale Score, Median ([3]; Bifeprunox 30 mg, Week 1): −1
- Change from Baseline in PANSS Negative Symptom Subscale Score, Mean (SD) ([3]; Bifeprunox 30 mg, Week 2): 2.6 (4.4)
- Change from Baseline in PANSS Negative Symptom Subscale Score, Median ([3]; Bifeprunox 30 mg, Week 2): −2
- Change from Baseline in PANSS Negative Symptom Subscale Score, Mean (SD) ([3]; Bifeprunox 30 mg, Week 3): −3.0 (5.0)
- Change from Baseline in PANSS Negative Symptom Subscale Score, Median ([3]; Bifeprunox 30 mg, Week 3): −3
- Change from Baseline in PANSS Negative Symptom Subscale Score, Mean (SD) ([3]; Bifeprunox 30 mg, Week 4): −3.1 (5.3)
- Change from Baseline in PANSS Negative Symptom Subscale Score, Median ([3]; Bifeprunox 30 mg, Week 4): −2
- Change from Baseline in PANSS Negative Symptom Subscale Score, Mean (SD) [3, 5]: −3.1 (5.6)
- Change from Baseline in PANSS Negative Symptom Subscale Score, Median [3, 5]: −2
- PANSS Negative Symptom Subscale Score, Trt Effect (bifeprunox—placebo) ([3]; Bifeprunox 30 mg, Week 6/Endpoint, ANCOVA): −1.4
- Change from Baseline in PANSS Negative Symptom Subscale Score, Mean (SD) ([3]; Bifeprunox 40 mg, Week 1): −1.2 (3.3)
- Change from Baseline in PANSS Negative Symptom Subscale Score, Median ([3]; Bifeprunox 40 mg, Week 1): −1
- Change from Baseline in PANSS Negative Symptom Subscale Score, Mean (SD) ([3]; Bifeprunox 40 mg, Week 2): −1.9 (4.0)
